Converted amounts (≈) assume the structure as drawn.

For assay [1], the system named is isolated rabbit aorta (contraction induced by angiotensin II). In words: Inhibition of vascular contraction in isolated rabbit aorta rings in vitro, contractions induced by angiotensin II. The settings on record: based on the 3rd (submaximal) agonist concentration. The protocol: Rabbits of both sexes are stunned by a blow to the neck and bled out, or in some cases anesthetised with Nembutal (about 60-80 mg/kg i.v.) and sacrificed by opening the thorax. The thorax aorta is taken out, freed from adhering connective tissue, divided into 1.5 mm wide ring segments and individually transferred under an initial loading of about 3.5 g to 10 ml organ baths containing 95% 02 /5% CO2 -aerated Krebs-Henseleit nutrient solution temperature-controlled at 37° C. of the following composition: 119 mmol/l of NaCl: 2.5 mmol/l of CaCl2 ×2 H2 O; 1.2 mmol/l of KH2 PO4; 10 mmol/l of glucose; 4.8 mmol/l of KCl; 1.4 mmol/l of MgSO4 ×7 H2 O and 25 mmol/l of NaHCO3.
The contractions are measured isometrically by Statham UC2 cells by means of bridge amplifiers (ifd Mulheim or DSM Aalen) and digitalised and analysed by means of A/D converters (System 570, Keithley Munich). Agohist dose response curves (DRC) were plotted hourly. With each DRC, 3 or 4 individual concentrations are applied to the baths at an interval of 4 min. After completion of the DRC and subsequent washing-out cycles (16 times, in each case about 5 sec/min with the abovementioned nutrient solution), a 28-minute resting or incubation phase is added in the course of which the contractions usually reach the starting value again.
The height of the 3rd DRC in the normal case is used as a reference quantity for the evaluation of the test substance to be investigated in further passages, which is applied to the baths in the following DRCs in increasing dosage in each case at the start of the incubation time. In this way, each aorta ring is always stimulated for the whole day with the same agohist.
To calculate the IC50 (concentration at which the substance to be investigated causes a 50% inhibition), the effect is in each case based on the 3rd=submaximal agonist concentration.

Assay [2] concerns the target T1, type 2 angiotensin II receptor (AT2) (Bos taurus, UniProt G5E6F7).
T1 construct: membrane fractions of bovine cerebellum; purchased NEN DuPont NED-001; host or cells: bovine cerebellum membrane fractions
T1 sequence (G5E6F7 1-362): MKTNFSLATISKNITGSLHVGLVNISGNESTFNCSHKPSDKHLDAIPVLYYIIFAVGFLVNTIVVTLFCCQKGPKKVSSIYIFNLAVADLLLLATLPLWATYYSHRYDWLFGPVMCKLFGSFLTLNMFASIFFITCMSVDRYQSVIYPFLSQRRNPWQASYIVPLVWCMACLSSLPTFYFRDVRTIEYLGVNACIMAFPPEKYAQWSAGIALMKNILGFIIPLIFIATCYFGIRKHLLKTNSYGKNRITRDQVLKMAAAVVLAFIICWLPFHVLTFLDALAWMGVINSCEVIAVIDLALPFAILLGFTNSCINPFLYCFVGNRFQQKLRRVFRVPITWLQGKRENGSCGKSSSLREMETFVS
Kind of assay: Interaction with the type 2 angiotensin II receptor (AT2) on membrane fractions of bovine cerebellum, 125I-angiotensin II binding. The settings on record: bovine cerebellum membranes; 125I-angiotensin II about 0.1 nM; 60 min, 37° C. As to the method: Interaction of the compounds according to the invention with the type 2 angiotensin II receptor (AT2) on membrane fractions of bovine cerebellum
For the test, the AT2 receptor "Drug Discovery System" of NEN DuPont (Catalogue No. NED-001) is used. The test is carried out correspondingly using the test protocol additionally supplied. Receptor binding is carried out in a test volume of 235 μl, which in detail contains ^125 I-angiotensin II (about 0.1 nM), Test buffer (PBS, NaCl, EDTA, PMSF, DTT, DMSO) and the substances to be investigated. After an incubation of 60 min at 37° C., the unbound radioactivity of the samples is separated by means of moistened glass fibre filters (Whatman GF/C) and the bound radioactivity is measured […] in a scintillation cocktail after washing the protein with ice-cold buffer solution (0.9% strength NaCl). The analysis of the raw data was carried out using computer programs for the IC50 or Ki value determination (IC50 value: concentration at which the substance to be investigated causes a 50% inhibition of the specific binding of the radioligand: Ki value: IC50 value corrected for the radioactivity used).

The subject of assay [3] is smooth muscle cells from rats' aortas. In words: Inhibition of proliferation of smooth muscle cells (3H-thymidine incorporation). In kind it is cell-based. The note with it: 10^-6 M, rat aortic smooth muscle cells, 10% FCS. The protocol: Investigation of the inhibition of proliferation of smooth muscle cells by the compounds according to the invention
To determine the antiproliferative action of the compounds, smooth muscle cells are used that have been obtained from rats' aortas by the media explant technique [R. Ross, J. Cell. Biol. 50. 172, 1971]. The cells are innoculated into suitable culture dishes (as a rule 96-hole plates, and cultured at 37° C. for 2-3 days in medium containing added serum, 2 mM L-glutamine and 15 mM HEPES, pH 7.4, in 5% CO2. The cells are then synchronised by withdrawal of serum for 2-3 days and then stimulated into growth by serum or other factors. Test desired compounds are added simultaneously. After 16-20 hours, 1 μCi of ^3 H-thymidine is added, and after a further 4 hours, the incorporation of this substance into the TCA-precipitable DNA of the cells is determined.

In assay [4] the target is T2, angiotensin II receptor on membrane fractions of adrenal gland cortex (bovine) (Bos taurus, UniProt P25104).
T2 construct: partially purified membrane fractions of bovine AGC using radioactive angiotensin II; from tissue; host or cells: bovine adrenal gland cortex, partially purified membrane fractions
T2 sequence (P25104 1-359): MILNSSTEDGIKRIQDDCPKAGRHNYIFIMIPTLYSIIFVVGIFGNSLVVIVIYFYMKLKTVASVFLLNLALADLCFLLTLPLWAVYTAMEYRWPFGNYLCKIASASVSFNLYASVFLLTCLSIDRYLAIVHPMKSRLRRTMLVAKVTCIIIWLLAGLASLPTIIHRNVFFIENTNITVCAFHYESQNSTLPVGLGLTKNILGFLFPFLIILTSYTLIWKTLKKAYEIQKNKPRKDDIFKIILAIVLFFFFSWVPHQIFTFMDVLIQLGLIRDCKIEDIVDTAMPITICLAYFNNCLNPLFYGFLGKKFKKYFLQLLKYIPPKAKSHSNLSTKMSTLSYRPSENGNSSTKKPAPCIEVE
Kind of assay: Interaction with the angiotensin II receptor on membrane fractions of adrenal gland cortex (bovine), 3H-angiotensin II binding. The settings on record: 3H-angiotensin II 3-5 nM, 60 min, room temperature. The text has this: Interaction of the compounds according to the invention with the angiotensin II receptor on membrane fractions of adrenal gland cortex (bovine)
Bovine adrenal gland cortices (AGC) which have been freshly removed and carefully freed from gland medulla are comminuted in sucrose solution (0.32M) with the aid of an Ultra-turrax (Janke & Kunkel, Staufen I. B.) to give a coarse membrane homogenate and are partially purified to give membrane fractions in two centrifugation steps. The receptor binding investigations are carried out on partially purified membrane fractions of bovine AGC using radioactive angiotensin II in an assay volume of 0.25 ml which, in detail, contains the partially purified membranes (50-80 μg) ^3 H-angiotensin II (3-5 nM), test buffer solution (50 mM tris, pH 7.2), 5 mM MgCl2 and the substances to be investigated. After an incubation time of 60 min at room temperature, the unbound radioactivity of the samples is separated by means of moistened glass fibre filters (Whatman GF/C) and the bound radioactivity is measured […] in a scintillation cocktail after washing the protein with ice-cold buffer solution (50 mM tris/HCl, pH 7.4, 5% PEG 6000). […]

With `CCCCc1nc(Cl)c(/C=C(\CC2CCCCC2)C(=O)O)n1Cc1ccc(C(C(=O)O)C2CCCCCC2)cc1` (stereo not shown) [Example 12], the “IC50 against contractions induced by angiotensin II” value (from here on “IC50 against contractions induced”) in assay [1] amounted to 0.046 µg/mL (≈ 0.0808 µM).

As to `CCCCc1nc(Cl)c(/C=C(\CC2CCCCC2)C(=O)O)n1Cc1ccc(C(C(=O)O)C2CCCC2)cc1` (racemic) [Example 4], in assay [1], the “IC50 against contractions induced” value was determined as 0.063 µg/mL (≈ 0.116 µM). The Ki in assay [2] was 827 nM.

`CCCCc1nc(Cl)c(/C=C(\CC2CCCCC2)C(=O)OC)n1Cc1ccc(C(C(=O)N[C@H](CO)c2ccccc2)C2CCCC2)cc1` (stereo partly drawn) [Example 5, (E)-2-[4-{2-n-Butyl-4-chloro-5-(3-cyclohexyl-2-methoxyarbonyl-prop-1-en-yl)-1H-imidazol-1-methyl}phenyl]-2-cyclopentyl-acetic acid L-phenylglycinolamide]: the inhibition at 1 µM in assay [3] was 90%.

`CCCCc1nc(Cl)c(/C=C(\CC2CCCCC2)C(=O)OC)n1Cc1ccc(C(C(=O)NS(=O)(=O)c2ccc(C)cc2)C2CCCC2)cc1` (stereo not shown) [Example 6, (E)-N-4-Toluenesulphonyl-2-[4-{2-n-butyl-4-chloro-5-(3-cyclohexyl-2-methoxycarbonyl-prop-1-en-yl)-1H-imidazol-1-yl-methyl}phenyl]-2-cyclopentyl-acetamide] had a Ki in assay [4] of 750 nM.

With `CCCCc1nc(Cl)c(/C=C(\CC2CCCCC2)C(=O)O)n1Cc1ccc(C(C(=O)N[C@H](CO)c2ccccc2)C2CCCC2)cc1` (stereo partly shown) [Example 8], the affinity in assay [4] corresponds to a Ki of 80 nM.

Consider `CCCCc1nc(Cl)c(/C=C(\CC2CCCCC2)C(=O)O)n1Cc1ccc(C(C(=O)NS(=O)(=O)c2ccc(C)cc2)C2CCCC2)cc1` (stereo not shown) [Example 7], for which, in assay [1], the “IC50 against contractions induced” value turned out to be 0.051 µg/mL (≈ 0.0735 µM).

(Values after patent publication US5376671A, “Propenoyl-imidazole derivatives” (Bayer Aktiengesellschaft, priority 1992, dated 1994).)
